Consider 18 compounds from patent EP1377579B1 (Aventis Pharmaceuticals Inc., priority 2000, dated 2002).

One assay concerns the target cdk4/cyclin D1 (Homo sapiens, UniProt P11802). The experiment in a line: Cyclin-dependent kinase assay, cdk4/cyclin D1. The format is biochemical. As to conditions: cyclin D1/cdk4; GST-pRb substrate, 10 µM ATP.
The next assay deals with MDA-MB-435. In words: In vitro proliferation assay (MTT), MDA-MB-435. The class given is cell-based, human. As to conditions: Homo sapiens, MDA-MB-435, MTT assay; value (SD, n) where given; read-out: MB-435 Breast (IC50 µM). In outline:
(§1)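 MTT viability, 3 d compound treatment; seeding 1000–2500 cells/well, overnight attachment; formazan in DMSO, A570; IC50 fitted from raw absorbance.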
Background: Formazan colour is commonly taken as a measure of viable cells.

The next assay concerns PC-3. In words: In vitro proliferation assay (MTT), PC-3. The format is cell-based, human. As to conditions: Homo sapiens, PC-3, MTT assay; value (SD, n) where given; read-out: PC-3 Prostate (IC50 µM). A digest of the protocol:
as §1

Another assay has as its target cdk1/cyclin B (Homo sapiens, UniProt P06493). The experiment in a line: Cyclin-dependent kinase assay, cdk1/cyclin B. As to conditions: CDK1 IC50, nM, Histone H1, 10 µM ATP.
The target in the next assay is cdk2/cyclin E (Homo sapiens, UniProt P24941). In words: Cyclin-dependent kinase assay, cdk2/cyclin E. As to conditions: CDK2 IC50, nM, GST-pRb substrate, 10 µM ATP.

SMILES strings stand for the structures. Where a name gives a salt, the structure may show the parent alone.

Chain of cdk4/cyclin D1 (P11802 whole entry): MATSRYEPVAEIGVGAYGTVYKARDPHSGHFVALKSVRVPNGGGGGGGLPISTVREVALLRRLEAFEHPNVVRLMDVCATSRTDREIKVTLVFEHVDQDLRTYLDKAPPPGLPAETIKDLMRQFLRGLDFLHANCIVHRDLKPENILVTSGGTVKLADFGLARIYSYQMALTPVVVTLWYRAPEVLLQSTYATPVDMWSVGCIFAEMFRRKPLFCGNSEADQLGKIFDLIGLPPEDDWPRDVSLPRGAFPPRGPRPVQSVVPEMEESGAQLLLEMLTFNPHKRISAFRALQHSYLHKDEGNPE
Chain of cdk4/cyclin D1 (P24385 whole entry partner): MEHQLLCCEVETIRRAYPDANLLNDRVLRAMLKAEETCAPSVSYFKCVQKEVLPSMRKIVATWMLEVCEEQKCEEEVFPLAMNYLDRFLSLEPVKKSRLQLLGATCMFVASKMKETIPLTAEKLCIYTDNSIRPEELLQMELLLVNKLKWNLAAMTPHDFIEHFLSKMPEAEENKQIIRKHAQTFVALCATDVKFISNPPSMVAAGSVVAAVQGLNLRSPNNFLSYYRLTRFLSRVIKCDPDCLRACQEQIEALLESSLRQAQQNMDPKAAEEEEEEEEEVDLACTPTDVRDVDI
Chain of cdk1/cyclin B (P06493 whole entry): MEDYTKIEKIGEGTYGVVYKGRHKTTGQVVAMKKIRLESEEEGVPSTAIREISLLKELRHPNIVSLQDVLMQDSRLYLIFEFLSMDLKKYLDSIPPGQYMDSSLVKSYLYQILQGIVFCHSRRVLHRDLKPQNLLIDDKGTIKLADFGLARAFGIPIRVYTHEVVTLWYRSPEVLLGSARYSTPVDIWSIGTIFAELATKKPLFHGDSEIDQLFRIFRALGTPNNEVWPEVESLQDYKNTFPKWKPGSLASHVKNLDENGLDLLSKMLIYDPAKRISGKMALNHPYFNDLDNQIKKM
Chain of cdk1/cyclin B (P14635 whole entry partner): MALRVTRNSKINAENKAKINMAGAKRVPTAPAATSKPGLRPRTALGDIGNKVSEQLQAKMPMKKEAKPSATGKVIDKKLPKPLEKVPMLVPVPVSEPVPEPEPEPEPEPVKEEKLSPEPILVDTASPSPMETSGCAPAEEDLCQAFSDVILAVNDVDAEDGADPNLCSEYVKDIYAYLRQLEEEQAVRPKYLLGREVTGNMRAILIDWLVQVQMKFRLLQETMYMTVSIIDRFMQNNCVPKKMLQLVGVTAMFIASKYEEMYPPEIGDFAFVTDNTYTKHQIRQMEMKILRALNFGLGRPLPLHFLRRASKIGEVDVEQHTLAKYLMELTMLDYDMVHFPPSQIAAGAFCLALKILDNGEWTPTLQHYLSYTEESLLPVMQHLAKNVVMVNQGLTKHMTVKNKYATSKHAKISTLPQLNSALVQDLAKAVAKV
Protocol for cdk2/cyclin E: The insect cell (Sf9) expression is optimized for each of the CDK/cyclin pairs according to the manufacturer's protocols (Life Technologies).
The viruses are added to the cells and the culture is incubated at 27°C for the desired time. The cells are harvested by centrifugation at 3000 rpm for 10 minutes. The cells are snap frozen on dry ice and stored at - 80°C.
Cell extracts are made following a standard procedure. The cell pellet is resuspended in lysis buffer (50 mM HEPES, pH 8.0, 10 mM MgCl2, 1 mM DTT, 2.5 mM EGTA, 1 mM EDTA, 10 mM β-glycerophosphate, 1 mM sodium vanadate, 1 mM sodium fluoride, 1 x Protease inhibitor cocktail). The cells are lysed using the microfluidizer (Microfluidics) for 20 minutes. Cell debris is removed by centrifugation at 100,000 x g. The cell extracts are aliquoted in 1 ml aliquots, frozen on dry ice, and stored at -80°C.
The kinase reactions are performed following a standard procedure. The enzyme and inhibitor are diluted in kinase buffer (50 mM HEPES, pH 8.0, 10 mM MgCl2, 2.5 mM EGTA, 10 mM β-glycerophosphate, 1 mM sodium vanadate, 1 mM sodium fluoride, and 1 mM DTT) and pre-incubated for 30 minutes. The cdk2 and cdk4 enzyme activities are assayed using 500 ng of the GST-pRb substrate (see description below) in the presence of 10 µM cold ATP and 1 µCi of [γ-^33P] ATP for 30 minutes at room temperature. […] The reactions are terminated by the addition of 50 µL of 10 mM cold ATP to stop the reactions. The reactions are transferred to a pre-soaked 96-well multi-screen plate containing 30 µL of 100% TCA per well. After incubation for one hour at room temperature, the plates are washed twice with 200 µl of 20% TCA, followed by 200 µl of 10% TCA and finally with 200 µl of 5% TCA. After drying the plates at room temperature, the filter plates are placed in adapter plates (Packard) and 40 µl of Microscint-O® (Packard) is added to each well.

As to `CC(C)n1cnc2c(NC3CCN(S(=O)(=O)c4ccc(C#N)cc4)CC3)nc(N[C@H]3CC[C@H](N)CC3)nc21` [compound 145, trans-4-{4-[2-(4-Amino-cyclohexylamino)-9-isopropyl-9H-purin-6-ylamino]-piperidine-1-sulfonyl} -benzonitrile dihydrochloride], the IC50 (in general, the concentration that inhibits the measured activity by half) is 8800 nM on cdk4/cyclin D1; 4.12 µM in the assay with MDA-MB-435; 6.32 µM in the assay on PC-3; 21 nM against cdk1/cyclin B; 70 nM against cdk2/cyclin E.
On the same counts, the results for `CCCS(=O)(=O)N1CCC(Nc2nc(N[C@H]3CC[C@H](N)CC3)nc3c2ncn3C2CCCC2)CC1` [compound 131, trans-N^2-(4-Amino-cyclohexyl)-N^6-[1-(propane-1-sulfonyl)-piperidin-4-yl]-9-cyclopentyl-9H-purine-2,6-diamine dihydrochloride] are 70 nM, 0.89 µM, 1.48 µM, 100 nM and 17 nM.
On the same counts, the results for `CC(C)NC(=O)N1CCC(Nc2nc(N[C@H]3CC[C@H](N)CC3)nc3c2ncn3C2CCCC2)CC1` [compound 157, trans-4-[2-(4-Amino-cyclohexylamino)-9-cyclopentyl-9H-purin-6-ylamino]-piperidine-1-carboxylic acid isopropylamide dihydrochloride] are 2040 nM, 2.54 µM, 3.34 µM, 310 nM and 32 nM.
Regarding `N[C@H]1CC[C@H](Nc2nc(NC3CCN(C(=O)Cc4cccs4)CC3)c3ncn(C4CCCC4)c3n2)CC1` [compound 61, trans-1-{4-[2-(4-Amino-cyclohexylamino)-9-cyclopentyl-9H-purin-6-ylamino]-piperidin-1-yl}-2-thiophen-2-yl-ethanone dihydrochloride], the IC50 against cdk4/cyclin D1 turned out to be 750 nM; with MDA-MB-435 it was 0.61 µM; in the assay on PC-3, 0.58 µM; against cdk1/cyclin B, 40 nM; on cdk2/cyclin E it was 38 nM.
As for `N[C@H]1CC[C@H](Nc2nc(NC3CCN(C(=O)C(c4ccccc4)c4ccccc4)CC3)c3ncn(C4CCCC4)c3n2)CC1` [compound 40, trans-1-{4-[2-(4-Amino-cyclohexylamino)-9-cyclopentyl-9H-purin-6-ylamino]-piperidin-1-yl}-2,2-diphenyl-ethanone dihydrochloride], the IC50 against cdk4/cyclin D1 came out at 238 nM; in the assay with MDA-MB-435 it was 0.22 µM; in the assay on PC-3, 0.27 µM; on cdk1/cyclin B, 36 nM; against cdk2/cyclin E it was 61 nM.
As to `N[C@H]1CC[C@H](Nc2nc(NC3CCN(C(=O)c4ccc(I)cc4)CC3)c3ncn(C4CCCC4)c3n2)CC1` [compound 76, trans-1-{4-[2-(4-Amino-cyclohexylamino)-9-cyclopentyl-9H-purin-6-ylamino]-piperidin-1-yl}-1-(4-iodo-phenyl)-methanone], the IC50 against cdk4/cyclin D1 is 787 nM; with MDA-MB-435, 1.47 µM; in the assay on PC-3, 1.04 µM; on cdk1/cyclin B, 57 nM; against cdk2/cyclin E it was 179 nM.
On the same counts, the results for `N[C@H]1CC[C@H](Nc2nc(NC3CCN(C(=O)c4ccc(Cl)cc4)CC3)c3ncn(C4CCCC4)c3n2)CC1` [compound 75, trans-1-{4-[2-(4-Amino-cyclohexylamino)-9-cyclopentyl-9H-purin-6-ylamino]-piperidin-1-yl}-1-(4-chloro-phenyl)-methanone] are 801 nM, 1.38 µM, 1.7 µM, 71 nM and 58 nM.
For the compound `N[C@H]1CC[C@H](Nc2nc(NC3CCN(C(=O)Nc4cccc(F)c4)CC3)c3ncn(C4CCCC4)c3n2)CC1` [compound 152, trans-4-[2-(4-Amino-cyclohexylamino)-9-cyclopentyl-9H-purin-6-ylamino]-piperidine-1-carboxylic acid (3-fluoro-phenyl)-amide dihydrochloride], the IC50 turned out to be 753 nM against cdk4/cyclin D1; 0.3 µM in the assay with MDA-MB-435; 0.38 µM in the assay with PC-3; 17 nM at cdk1/cyclin B; 42 nM against cdk2/cyclin E.
Consider `N[C@H]1CC[C@H](Nc2nc(NC3CCN(S(=O)(=O)c4ccc(Br)cc4)CC3)c3ncn(C4CCCC4)c3n2)CC1` [compound 114, trans-N^2-(4-Amino-cyclohexyl)-9-cyclopentyl-N^6-[1-(4-bromo-benzenesulfonyl)-piperidin-4-yl]-9H-purine-2,6-diamine dihydrochloride], for which the IC50 against cdk4/cyclin D1 is 80 nM; with MDA-MB-435 it was 0.33 µM; in the assay on PC-3, 0.48 µM; against cdk1/cyclin B, 5 nM; at cdk2/cyclin E, 15 nM.
With `N[C@H]1CC[C@H](Nc2nc(NC3CCN(C(=O)c4ccccc4Br)CC3)c3ncn(C4CCCC4)c3n2)CC1` [compound 13, trans-1-{4-[2-(4-Amino-cyclohexylamino)-9-cyclopentyl-9H-purin-6-ylamino]-piperidin-1-yl}-1-(2-bromo-phenyl)-methanone], the IC50 on cdk4/cyclin D1 came to 373 nM; in the assay on MDA-MB-435, 2.89 µM; in the assay on PC-3, 2.55 µM; against cdk1/cyclin B, 197 nM; against cdk2/cyclin E, 364 nM.
For `CCNC(=O)N1CCC(Nc2nc(N[C@H]3CC[C@H](N)CC3)nc3c2ncn3C2CCCC2)CC1` [compound 148, trans-4-[2-(4-Amino-cyclohexylamino)-9-cyclopentyl-9H-purin-6-ylamino]-piperidine-1-carboxylic acid ethylamide dihydrochloride], in that order: 699 nM, 4.7 µM, 4.79 µM, 197 nM and 61 nM.
For `CCCCCCNC(=O)N1CCC(Nc2nc(N[C@H]3CC[C@H](N)CC3)nc3c2ncn3C2CCCC2)CC1` [compound 185, trans-4-[2-(4-Amino-cyclohexylamino)-9-cyclopentyl-9H-purin-6-ylamino]-piperidine-1-carboxylic acid hexylamide dihydrochloride], in that order: 280 nM, 0.29 µM, 0.41 µM, 72 nM and 79 nM.
On the same counts, the results for `COc1cc(C(=O)N2CCC(Nc3nc(N[C@H]4CC[C@H](N)CC4)nc4c3ncn4C3CCCC3)CC2)cc(OC)c1OC` [compound 16, trans-1-{4-[2-(4-Amino-cyclohexylamino)-9-cyclopentyl-9H-purin-6-ylamino]-piperidin-1-yl}-1-(3,4,5-trimethoxy-phenyl)-methanone] are 372 nM, 8.52 µM, 7.91 µM, 43 nM and 83 nM.
In the case of `CC(C)(C)c1ccc(C(=O)N2CCC(Nc3nc(N[C@H]4CC[C@H](N)CC4)nc4c3ncn4C3CCCC3)CC2)cc1` [compound 20, trans-1-{4-[2-(4-Amino-cyclohexylamino)-9-cyclopentyl-9H-purin-6-ylamino]-piperidin-1-yl}-1-(4-tert-butyl-phenyl)-methanone], the IC50 against cdk4/cyclin D1 was 682 nM; in the assay on MDA-MB-435, 2.25 µM; with PC-3, 1.96 µM; on cdk1/cyclin B, 161 nM; against cdk2/cyclin E it was 352 nM.
Take `N[C@H]1CC[C@H](Nc2nc(NC3CCN(C(=O)c4cc(Cl)cc(Cl)c4)CC3)c3ncn(C4CCCC4)c3n2)CC1` [compound 79, trans-1-{4-[2-(4-Amino-cyclohexylamino)-9-cyclopentyl-9H-purin-6-ylamino]-piperidin-1-yl}-1-(3,5-dichloro-phenyl)-methanone]: the IC50 was 483 nM at cdk4/cyclin D1; 0.25 µM with MDA-MB-435; 0.27 µM with PC-3; 44 nM at cdk1/cyclin B; 73 nM against cdk2/cyclin E.
Consider `CCCCCNC(=O)N1CCC(Nc2nc(N[C@H]3CC[C@H](N)CC3)nc3c2ncn3C2CCCC2)CC1` [compound 184, trans-4-[2-(4-Amino-cyclohexylamino)-9-cyclopentyl-9H-purin-6-ylamino]-piperidine-1-carboxylic acid pentylamide dihydrochloride], for which the IC50 turned out to be 377 nM at cdk4/cyclin D1; 0.71 µM in the assay with MDA-MB-435; 0.71 µM with PC-3; 77 nM at cdk1/cyclin B; 85 nM at cdk2/cyclin E.
For the compound `CCCCNC(=O)N1CCC(Nc2nc(N[C@H]3CC[C@H](N)CC3)nc3c2ncn3C2CCCC2)CC1` [compound 204, trans-4-[2-(4-Amino-cyclohexylamino)-9-cyclopentyl-9H-purin-6-ylamino]-piperidine-1-carboxylic acid butylamide dihydrochloride], the IC50 against cdk4/cyclin D1 amounted to 39 nM; in the assay with MDA-MB-435 it was 2.53 µM; with PC-3 it was 2.64 µM; against cdk1/cyclin B, 200 nM; against cdk2/cyclin E, 51 nM.
With `N[C@H]1CC[C@H](Nc2nc(NC3CCN(C(=O)Nc4ccccc4OC(F)(F)F)CC3)c3ncn(C4CCCC4)c3n2)CC1` [compound 174, trans-4-[2-(4-Amino-cyclohexylamino)-9-cyclopentyl-9H-purin-6-ylamino]-piperidine-1-carboxylic acid (2-trifluoromethoxy-phenyl)-amide dihydrochloride], the IC50 against cdk4/cyclin D1 is 795 nM; in the assay with MDA-MB-435, 0.31 µM; in the assay with PC-3, 0.27 µM; against cdk1/cyclin B, 48 nM; against cdk2/cyclin E it was 89 nM.
